Results reported in patent publication US10150760B2, “Compounds for use in preparing heterocyclic triazole agonists of the APJ receptor” (AMGEN INC., priority 2016, dated 2018).

Target: human APJ receptor (Homo sapiens (Human), UniProt P35414)
Experiment: [35S]GTPγS binding assay on membranes from CHO cells stably expressing human APJ receptor
Assay type: biochemical
Conditions: read-out: Activity hAPJ SPA EC50 IP
Outline: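 Membranes from CHO cells stably expressing human APJ incubated with ligand, 0.2 nM [35S]GTPγS and WGA SPA beads in HEPES pH 7.5 with 5 mM MgCl2, 200 mM NaCl, 3 μM GDP, 90 min at RT. Nonspecific binding defined with 100 μM GTPγS; EC50 by non-linear regression.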

Sequence of human APJ receptor (P35414 whole entry): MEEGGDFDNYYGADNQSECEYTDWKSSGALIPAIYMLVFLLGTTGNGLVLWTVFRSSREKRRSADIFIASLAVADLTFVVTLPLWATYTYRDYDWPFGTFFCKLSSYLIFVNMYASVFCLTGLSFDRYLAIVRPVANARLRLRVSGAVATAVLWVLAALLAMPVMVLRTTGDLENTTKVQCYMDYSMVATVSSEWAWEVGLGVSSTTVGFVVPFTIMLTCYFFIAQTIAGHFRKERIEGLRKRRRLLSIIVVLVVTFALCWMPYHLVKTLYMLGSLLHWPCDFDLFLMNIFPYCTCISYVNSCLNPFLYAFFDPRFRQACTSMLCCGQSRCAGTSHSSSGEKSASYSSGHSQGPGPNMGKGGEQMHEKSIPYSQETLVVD

Question: `CO[C@H](c1ncc(Cl)cn1)[C@H](C)S(=O)(=O)Nc1nnc([C@H]2CCOC2)n1Cc1ccon1` (single isomer, unassigned) [Example 401.0, (1R,2S)-1-(5-chloro-2-pyrimidinyl)-1-methoxy-N-(4-(1,2-oxazol-3-ylmethyl)-5-((3R)-tetrahydro-3-furanyl)-4H-1,2,4-triazol-3-yl)-2-propanesulfonamide or (1R,2S)-1-(5-chloro-2-pyrimidinyl)-1-methoxy-N-(4-(1,2-oxazol-3-ylmethyl)-5-((3S)-tetrahydro-3-furanyl)-4H-1,2,4-triazol-3-yl)-2-propanesulfonamide] was tested. Which EC50 did it give?
Answer: 100 nM

Question: “(2S,3R)-3-(5-chloro-2-pyridinyl)-N-(4-(1,3-dimethoxy-2-propanyl)-5-((2R,5R)-5-methyltetrahydro-2-furanyl)-4H-1,2,4-triazol-3-yl)-2-butanesulfonamide or (2S,3R)-3-(5-chloro-2-pyridinyl)-N-(4-(1,3-dimethoxy-2-propanyl)-5-((2S,5S)-5-methyltetrahydro-2-furanyl)-4H-1,2,4-triazol-3-yl)-2-butanesulfonamide [Example 373.0]” was tested. Which EC50 did it give?
Answer: 8 nM

Question: For “(1R,2S)-N-(4-(1,3-dimethoxy-2-propanyl)-5-((2R,5R)-5-methyltetrahydro-2-furanyl)-4H-1,2,4-triazol-3-yl)-1-methoxy-1-(5-methoxy-2-pyrazinyl)-2-propanesulfonamide or (1R,2S)-N-(4-(1,3-dimethoxy-2-propanyl)-5-((2S,5S)-5-methyltetrahydro-2-furanyl)-4H-1,2,4-triazol-3-yl)-1-methoxy-1-(5-methoxy-2-pyrazinyl)-2-propanesulfonamide [Example 378.0]”, which EC50 is on record?
Answer: 170 nM

Question: Which EC50 does the source give for “(1R,2S)-1-(5-chloropyrimidin-2-yl)-N-(4-(2,6-dimethoxyphenyl)-5-((3aR,6aR)-hexahydro-3aH-cyclopenta[b]furan-3a-yl)-4H-1,2,4-triazol-3-yl)-1-methoxypropane-2-sulfonamide or (1R,2S)-1-(5-chloropyrimidin-2-yl)-N-(4-(2,6-dimethoxyphenyl)-5-((3aS,6aS)-hexahydro-3aH-cyclopenta[b]furan-3a-yl)-4H-1,2,4-triazol-3-yl)-1-methoxypropane-2-sulfonamide [Example 346.0]” here?
Answer: 780 nM

Question: For `COCC1(n2c(NS(=O)(=O)[C@@H](C)[C@H](OC)c3ncc(Cl)cn3)nnc2[C@H]2CCOC2)CC1` (single isomer, unassigned) [Example 339.0, (1R,2S)-1-(5-chloro-2-pyrimidinyl)-1-methoxy-N-(4-(1-(methoxymethyl)cyclopropyl)-5-((3R)-tetrahydro-3-furanyl)-4H-1,2,4-triazol-3-yl)-2-propanesulfonamide or (1R,2S)-1-(5-chloro-2-pyrimidinyl)-1-methoxy-N-(4-(1-(methoxymethyl)cyclopropyl)-5-((3S)-tetrahydro-3-furanyl)-4H-1,2,4-triazol-3-yl)-2-propanesulfonamide], which EC50 is on record?
Answer: 1440 nM

Question: `CO[C@H](c1ncc(Cl)cn1)[C@H](C)S(=O)(=O)Nc1nnc([C@@H]2COCCO2)n1C(C1CC1)C1CC1` (single isomer, unassigned) [Example 337.0, (1R,2S)-1-(5-chloro-2-pyrimidinyl)-N-(4-(dicyclopropylmethyl)-5-((2R)-1,4-dioxan-2-yl)-4H-1,2,4-triazol-3-yl)-1-methoxy-2-propanesulfonamide or (1R,2S)-1-(5-chloro-2-pyrimidinyl)-N-(4-(dicyclopropylmethyl)-5-((2S)-1,4-dioxan-2-yl)-4H-1,2,4-triazol-3-yl)-1-methoxy-2-propanesulfonamide] was tested. Which EC50 did it give?
Answer: 6.9 nM

Question: How did the EC50 turn out when `COc1cnc([C@@H](C)[C@H](C)S(=O)(=O)Nc2nnc([C@@H]3CC[C@H](C)O3)n2-c2c(OC)cccc2OC)nc1` (mixture of isomers) [Example 249.0, (2S,3R)-N-(4-(2,6-dimethoxyphenyl)-5-((2R,5R)-5-methyltetrahydro-2-furanyl)-4H-1,2,4-triazol-3-yl)-3-(5-methoxy-2-pyrimidinyl)-2-butanesulfonamide and (2S,3R)-N-(4-(2,6-dimethoxyphenyl)-5-((2S,5S)-5-methyltetrahydro-2-furanyl)-4H-1,2,4-triazol-3-yl)-3-(5-methoxy-2-pyrimidinyl)-2-butanesulfonamide] was run?
Answer: 540 nM

Question: Which EC50 does the source give for “(2S,3R)-N-(4-(1,3-dimethoxy-2-propanyl)-5-((2R,5R)-5-methyltetrahydro-2-furanyl)-4H-1,2,4-triazol-3-yl)-3-(5-methoxy-2-pyrazinyl)-2-butanesulfonamide or (2S,3R)-N-(4-(1,3-dimethoxy-2-propanyl)-5-((2S,5S)-5-methyltetrahydro-2-furanyl)-4H-1,2,4-triazol-3-yl)-3-(5-methoxy-2-pyrazinyl)-2-butanesulfonamide [Example 377.0]” here?
Answer: 24 nM

Question: How did the EC50 turn out when `COc1cccc(OC)c1-n1c(NS(=O)(=O)[C@@H](C)[C@H](C)c2cnc(C)cn2)nnc1[C@H]1CCCOC1` (single isomer, unassigned) [Example 134.0, (2S,3R)-N-(4-(2,6-dimethoxyphenyl)-5-((R)-tetrahydro-2H-pyran-3-yl)-4H-1,2,4-triazol-3-yl)-3-(5-methylpyrazin-2-yl)butane-2-sulfonamide or (2S,3R)-N-(4-(2,6-dimethoxyphenyl)-5-((S)-tetrahydro-2H-pyran-3-yl)-4H-1,2,4-triazol-3-yl)-3-(5-methylpyrazin-2-yl)butane-2-sulfonamide] was run?
Answer: 400 nM

Question: How did the EC50 turn out when “(1R,2S)-1-(5-chloropyridin-2-yl)-N-(4-(2,6-dimethoxyphenyl)-5-((R)-1,4-dioxan-2-yl)-4H-1,2,4-triazol-3-yl)-1-methoxypropane-2-sulfonamide or (1R,2S)-1-(5-chloropyridin-2-yl)-N-(4-(2,6-dimethoxyphenyl)-5-((S)-1,4-dioxan-2-yl)-4H-1,2,4-triazol-3-yl)-1-methoxypropane-2-sulfonamide [Example 264.0]” was run?
Answer: 1.2 nM

Question: For `CO[C@H](c1ncc(Cl)cn1)[C@H](C)S(=O)(=O)Nc1nnc([C@H]2CCOC2)n1Cc1ccon1` (single isomer, unassigned) [Example 402.0, (1R,2S)-1-(5-chloro-2-pyrimidinyl)-1-methoxy-N-(4-(1,2-oxazol-3-ylmethyl)-5-((3R)-tetrahydro-3-furanyl)-4H-1,2,4-triazol-3-yl)-2-propanesulfonamide or (1R,2S)-1-(5-chloro-2-pyrimidinyl)-1-methoxy-N-(4-(1,2-oxazol-3-ylmethyl)-5-((3S)-tetrahydro-3-furanyl)-4H-1,2,4-triazol-3-yl)-2-propanesulfonamide], which EC50 is on record?
Answer: 410 nM

Question: With `COCCn1c(NS(=O)(=O)[C@@H](C)[C@H](OC)c2ncc(Cl)cn2)nnc1[C@@H]1COCCO1` (single isomer, unassigned) [Example 312.0, (1R,2S)-N-(5-((R)-1,4-dioxan-2-yl)-4-(2-methoxyethyl)-4H-1,2,4-triazol-3-yl)-1-(5-chloropyrimidin-2-yl)-1-methoxypropane-2-sulfonamide or (1R,2S)-N-(5-((S)-1,4-dioxan-2-yl)-4-(2-methoxyethyl)-4H-1,2,4-triazol-3-yl)-1-(5-chloropyrimidin-2-yl)-1-methoxypropane-2-sulfonamide] as the molecule, how does the EC50 read?
Answer: 1900 nM

Question: With `CO[C@H](c1ncc(Cl)cn1)[C@H](C)S(=O)(=O)Nc1nnc([C@H]2COCCO2)n1C(C)C` (single isomer, unassigned) [Example 301.0, (1R,2S)-N-(5-((S)-1,4-dioxan-2-yl)-4-isopropyl-4H-1,2,4-triazol-3-yl)-1-(5-chloropyrimidin-2-yl)-1-methoxypropane-2-sulfonamide or (1R,2S)-N-(5-((R)-1,4-dioxan-2-yl)-4-isopropyl-4H-1,2,4-triazol-3-yl)-1-(5-chloropyrimidin-2-yl)-1-methoxypropane-2-sulfonamide] as the molecule, how does the EC50 read?
Answer: 2900 nM

Question: For `COCC1(n2c(NS(=O)(=O)[C@@H](C)[C@H](OC)c3ncc(Cl)cn3)nnc2[C@H]2CCOC2)CC1` (mixture of isomers) [Example 303.0, (1R,2S)-1-(5-chloro-2-pyrimidinyl)-1-methoxy-N-(4-(1-(methoxymethyl)cyclopropyl)-5-((3R)-tetrahydro-3-furanyl)-4H-1,2,4-triazol-3-yl)-2-propanesulfonamide and (1R,2S)-1-(5-chloro-2-pyrimidinyl)-1-methoxy-N-(4-(1-(methoxymethyl)cyclopropyl)-5-((3S)-tetrahydro-3-furanyl)-4H-1,2,4-triazol-3-yl)-2-propanesulfonamide], which EC50 is on record?
Answer: 340 nM

Question: How did the EC50 turn out when `COc1cccc(OC)c1-n1c(NS(=O)(=O)[C@@H](C)[C@H](C)c2ncc(Cl)cn2)nnc1[C@H]1OCC[C@H]1C` (single isomer, unassigned) [Example 76.0, (2S,3R)-3-(5-chloropyrimidin-2-yl)-N-(4-(2,6-dimethoxyphenyl)-5-((2R,3S)-3-methyltetrahydrofuran-2-yl)-4H-1,2,4-triazol-3-yl)butane-2-sulfonamide or (2S,3R)-3-(5-chloropyrimidin-2-yl)-N-(4-(2,6-dimethoxyphenyl)-5-((2S,3R)-3-methyltetrahydrofuran-2-yl)-4H-1,2,4-triazol-3-yl)butane-2-sulfonamide] was run?
Answer: 1.4 nM

Question: With `COc1cccc(OC)c1-n1c(NS(=O)(=O)[C@@H](C)[C@H](OC)c2ncc(Cl)cn2)nnc1[C@H]1CCC(=O)N1C` (single isomer, unassigned) [Example 406.0, (1R,2S)-1-(5-chloropyrimidin-2-yl)-N-(4-(2,6-dimethoxyphenyl)-5-((R)-1-methyl-5-oxopyrrolidin-2-yl)-4H-1,2,4-triazol-3-yl)-1-methoxypropane-2-sulfonamide or (1R,2S)-1-(5-chloropyrimidin-2-yl)-N-(4-(2,6-dimethoxyphenyl)-5-((S)-1-methyl-5-oxopyrrolidin-2-yl)-4H-1,2,4-triazol-3-yl)-1-methoxypropane-2-sulfonamide] as the molecule, how does the EC50 read?
Answer: 1080 nM
